Here are results for six compounds from patent US8143249B2 (Gilead Sciences, Inc., priority 2005, dated 2012).

The structures appear in SMILES notation.

The nature of the data set: Oral pharmacokinetics/bioavailability of prodrugs vs parent (compound 1) in rats, plasma LC/MS/MS. It counts as in vivo, Sprague Dawley rats. As to conditions: for Cmax: Sprague Dawley. The procedure:
The following studies were conducted in order to compare the pharmacokinetics of the parent A2B adenosine receptor antagonist and its corresponding prodrug. The parent compound chosen was the compound of formula A in which R^1 is n-propyl, R^2 is ethyl, R^3 is hydrogen, and R^4 is 3-trifluoromethylphenyl; that is:
The studies were carried out in Sprague Dawley rats. The test compounds were administered orally by gavage to groups of three rats using a single oral dose of the test compound at 2 and 30 mg/kg. All oral doses were prepared either as a suspension in DMSO/ethanol/PEG300/0.1% N-methyl-D-glucamine or as a suspension in 0.5% methylcellulose in water. Blood samples were obtained serially from each rat at 0, 5, 15, 30 min, and then 1, 1.5, 2, 4, 6, 8, and 24 hrs post-dose.
Concentrations of compound 1 and/or the corresponding prodrug in rat plasma were determined by a HPLC tandem mass spectrometric (LC/MS/MS) method. Briefly, 0.1 mL of plasma sample was treated with 0.5 mL of acetonitrile:methanol (9:1, v/v) mixture containing 25 ng of compound 1 having deuterated ethyl at the 3-position in place of ethyl. (Internal Standard, I.S.) to precipitate the protein. The mixture was filtered through a 96-well filter and filtrate was collected and evaporated to dryness on a 96-well plate evaporator. The residue was then reconstituted with 400 μL 20% methanol and subjected to LC/MS/MS analysis. Quantification of compound 1 was achieved by mass spectrometry using Multiple Reaction Monitoring (MRM) mode, monitoring the transitions at m/z 447.1>159.1 for compound 1 and 452.1>159.1 for I.S. The quantification limit of the assay was 0.38 ng/mL for the analysis of the oral dose samples and 10 ng/mL during the analysis of the intravenous dose samples using 0.1 mL of plasma.
Non-compartmental pharmacokinetic parameters were determined using a commercial program WinNonLin Professional, Version 4.1 (Pharsight, Mountain View, Calif.). Plasma concentration at below level of detection was assumed to be zero for the calculation of means and pharmacokinetic parameters.
For oral administration, the maximum concentration (Cmax) and time to reach Cmax (Tmax), AUC(0-1), AUC(0-8) and bioavailability (% F) were determined. Oral bioavailability was determined from the ratio of dose-adjusted AUC(0-8) of the respective oral dose and the mean AUC(0-8) values of the 0.1 and 0.5 mg/kg intravenous doses.
The results are presented below in tabular form. The table provides results obtained by using a suspension of the test compound in a suspension in DMSO/ethanol/PEG300/0.1% N-methyl-D-glucamine in rats.

The mark [1] stands for this setting: unchanged prodrug in rat plasma after single oral gavage dose, suspension in DMSO/ethanol/PEG300/0.1% N-methyl-D-glucamine.

Consider `CCCn1c(=O)c2c(nc(-c3cnn(Cc4cccc(C(F)(F)F)c4)c3)n2COC(=O)C(C)(C)C)n(CC)c1=O` [Compound 4, [3-ethyl-2,6-dioxo-1-propyl-8-(1-{[3-(trifluoromethyl)phenyl]methyl}pyrazol-4-yl)-1,3,7-trihydropurin-7-yl]methyl-2,2-dimethylpropanoate], for which, under setting [1], the Cmax is less than 5 ng/mL and the “Prodrug Mean Dose Adjusted AUC” value was “Not detectable”.

Turning to `CCCn1c(=O)c2c(nc(-c3cnn(Cc4cccc(C(F)(F)F)c4)c3)n2COC(=O)NCCN(C)C)n(CC)c1=O` [Compound 10], under setting [1], the Cmax is less than 5 ng/mL and the “Prodrug Mean Dose Adjusted AUC” value is reported as “Not detectable”. In addition, the “prodrug seen in plasma unmetabolized” value (rats, oral, result in words) is “detected in the plasma unmetabolized”.

On to `CCCn1c(=O)c2c(nc(-c3cnn(Cc4cccc(C(F)(F)F)c4)c3)n2COC(=O)N(C)CCN(C)C)n(CC)c1=O` [Compound 5], for which, where the note is “rats, oral, result in words”, the “plasma levels of parent compound 1 following oral dosing, compared with oral dosing of the parent itself” value is given as “approximately the same”. Moreover, under setting [1], the “Prodrug Mean Cmax” value is less than 5 ng/mL and the “Prodrug Mean Dose Adjusted AUC” value is “Not detectable”.

Regarding `CCCn1c(=O)c2c(nc(-c3cnn(Cc4cccc(C(F)(F)F)c4)c3)n2COP(=O)(O)O)n(CC)c1=O` [Compound 6, [3-ethyl-2,6-dioxo-1-propyl-8-(1-{[3-(trifluoromethyl)phenyl]methyl}-pyrazol-4-yl)(1,3,7-trihydropurin-7-yl)]methyl dihydrogen phosphate], under setting [1], the Cmax is less than 5 ng/mL and the “Prodrug Mean Dose Adjusted AUC” value was “Not detectable”. Moreover, the “prodrug seen in plasma unmetabolized” value (rats, oral, result in words) was “detected in the plasma unmetabolized”.

For `CCCn1c(=O)c2c(nc(-c3cnn(Cc4cccc(C(F)(F)F)c4)c3)n2COC(C)=O)n(CC)c1=O` [Compound 3, [3-ethyl-2,6-dioxo-1-propyl-8-(1-{[3-(trifluoromethyl)phenyl]methyl}pyrazol-4-yl)-1,3,7-trihydropurin-7-yl]methyl acetate], under setting [1], the Cmax was less than 5 ng/mL and the “Prodrug Mean Dose Adjusted AUC” value is given as “Not detectable”.

Take `CCCC(=O)OCn1c(-c2cnn(Cc3cccc(C(F)(F)F)c3)c2)nc2c1c(=O)n(CCC)c(=O)n2CC` [Compound 2, [3-ethyl-2,6-dioxo-1-propyl-8-(1-{[3-(trifluoromethyl)phenyl]methyl}pyrazol-4-yl)-1,3,7-trihydropurin-7-yl]methyl butanoate]: under setting [1], the Cmax is less than 5 ng/mL and the “Prodrug Mean Dose Adjusted AUC” value is given as “Not detectable”.
